Results reported in ChEMBL document CHEMBL1151963 (J Med Chem, 2009).
The source made the active and inactive calls. The rule behind the calls is not given here.

What was measured:
LNCaP = assay: Cytotoxicity against human LNCAP cells after 3 days by MTS assay; type: functional, cell-based; settings: 72 h
[1] = target: T1, Serine/threonine-protein kinase mTOR (Homo sapiens, UniProt P42345); assay: Inhibition of flag-tagged truncated human mTOR (1360-2549) expressed in HEK293 cells by DELFIA assay; type: cell-based
[2] = Metabolic stability in nude mouse microsomes assessed as half life at 1 uM by HPLC-MS/MS analysis; type: ADME, Microsome
[3] = target: Phosphatidylinositol 4,5-bisphosphate 3-kinase catalytic subunit alpha isoform (Homo sapiens, UniProt P42336); assay: Inhibition of PI3Kalpha expressed in Escherichia coli by microtiter plate-based fluorescence polarization assay
Sequence of Phosphatidylinositol 4,5-bisphosphate 3-kinase catalytic subunit alpha isoform (P42336 whole entry, canonical isoform): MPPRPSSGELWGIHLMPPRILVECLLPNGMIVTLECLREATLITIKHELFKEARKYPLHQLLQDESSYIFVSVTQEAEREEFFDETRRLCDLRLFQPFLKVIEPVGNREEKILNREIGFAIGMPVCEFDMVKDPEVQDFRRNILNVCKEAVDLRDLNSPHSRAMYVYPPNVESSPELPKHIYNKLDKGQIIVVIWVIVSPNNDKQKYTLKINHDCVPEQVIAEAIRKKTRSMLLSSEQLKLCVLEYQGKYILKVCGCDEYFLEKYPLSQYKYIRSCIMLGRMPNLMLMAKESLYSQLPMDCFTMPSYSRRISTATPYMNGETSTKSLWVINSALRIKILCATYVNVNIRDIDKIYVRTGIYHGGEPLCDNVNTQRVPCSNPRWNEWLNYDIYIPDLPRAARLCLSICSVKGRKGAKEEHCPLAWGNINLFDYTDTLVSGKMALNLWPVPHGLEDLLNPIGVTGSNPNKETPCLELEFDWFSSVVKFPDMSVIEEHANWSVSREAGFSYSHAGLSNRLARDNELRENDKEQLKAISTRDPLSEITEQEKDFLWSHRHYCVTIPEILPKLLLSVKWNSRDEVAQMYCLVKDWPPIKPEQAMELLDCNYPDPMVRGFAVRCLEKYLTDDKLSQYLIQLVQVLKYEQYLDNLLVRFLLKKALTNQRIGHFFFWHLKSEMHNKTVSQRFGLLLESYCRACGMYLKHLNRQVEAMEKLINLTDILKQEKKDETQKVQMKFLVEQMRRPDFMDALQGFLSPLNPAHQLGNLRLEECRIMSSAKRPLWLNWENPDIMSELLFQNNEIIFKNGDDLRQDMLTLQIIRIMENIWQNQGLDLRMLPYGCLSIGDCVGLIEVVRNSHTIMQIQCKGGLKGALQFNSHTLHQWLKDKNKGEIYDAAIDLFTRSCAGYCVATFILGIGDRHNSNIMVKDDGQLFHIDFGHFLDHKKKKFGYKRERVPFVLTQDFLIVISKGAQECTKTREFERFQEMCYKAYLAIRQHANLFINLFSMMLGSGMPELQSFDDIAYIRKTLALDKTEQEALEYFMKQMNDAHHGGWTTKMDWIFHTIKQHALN

Mus musculus [4] = assay: Inhibition of mTOR complex 1 in BALB/c nu/nu mouse bearing PTEN-null human PC3MM2 xenograft tumor assessed as suppression of S6K phosphorylation at T389 at 50 mg/kg, ip administered as single dose for 4 hrs; type: functional, organism-based; design: dose 50 mg/kg
[5] = Antitumor activity against human U87MG cells xenografted in BALB/c nu/nu mouse at 50 mg/kg, ip administered once daily for 5 days measured on day 7 relative to control; type: functional, U-87MG ATCC; settings: route intraperitoneal
Mus musculus [6] = assay: Inhibition of mTOR complex 2 in BALB/c nu/nu mouse bearing PTEN-null human PC3MM2 xenograft tumor assessed as suppression of AKT phosphorylation at S473 at 50 mg/kg, ip administered as single dose for 4 hrs; type: functional, organism-based; design: dose 50 mg/kg
Mus musculus [7] = assay: Inhibition of PI3K in BALB/c nu/nu mouse bearing PTEN-null human PC3MM2 xenograft tumor assessed as suppression of AKT phosphorylation at T308 at 50 mg/kg, ip administered as single dose for 4 hrs; type: functional, organism-based; design: dose 50 mg/kg
[8] = target: T1, Serine/threonine-protein kinase mTOR; assay: Inhibition of mTOR complex 2 in human PC3MM2 cells assessed as suppression of P-AKT phosphorylation at S473 treated for 6 hrs by immunoblotting analysis; type: cell-based
[9] = target: Ribosomal protein S6 kinase alpha-1 (Homo sapiens, UniProt Q15418); assay: Inhibition of RSK1 after 1 hr by mobility shift electrophoresis assay
Sequence of Ribosomal protein S6 kinase alpha-1 (Q15418 whole entry): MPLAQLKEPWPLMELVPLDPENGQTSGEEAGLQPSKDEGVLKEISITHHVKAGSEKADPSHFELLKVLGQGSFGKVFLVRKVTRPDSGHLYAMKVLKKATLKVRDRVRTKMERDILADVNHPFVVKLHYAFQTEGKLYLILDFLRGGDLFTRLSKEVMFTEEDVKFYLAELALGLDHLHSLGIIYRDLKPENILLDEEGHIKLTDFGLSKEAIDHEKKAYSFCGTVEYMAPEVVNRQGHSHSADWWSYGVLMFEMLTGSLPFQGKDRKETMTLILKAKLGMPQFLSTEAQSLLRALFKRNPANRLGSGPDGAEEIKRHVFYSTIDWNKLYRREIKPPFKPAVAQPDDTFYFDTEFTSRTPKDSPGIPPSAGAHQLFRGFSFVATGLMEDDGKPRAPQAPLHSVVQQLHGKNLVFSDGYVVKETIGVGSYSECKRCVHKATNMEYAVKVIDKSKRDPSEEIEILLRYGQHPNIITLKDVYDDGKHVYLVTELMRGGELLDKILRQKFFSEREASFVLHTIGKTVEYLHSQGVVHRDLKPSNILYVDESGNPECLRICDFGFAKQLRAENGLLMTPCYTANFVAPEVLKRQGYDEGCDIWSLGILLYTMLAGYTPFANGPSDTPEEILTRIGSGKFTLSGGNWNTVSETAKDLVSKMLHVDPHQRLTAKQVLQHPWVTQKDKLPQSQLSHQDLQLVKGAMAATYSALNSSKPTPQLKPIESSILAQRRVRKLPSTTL

[10] = target: MAP kinase-activated protein kinase 2 (Homo sapiens, UniProt P49137); assay: Inhibition of MK2 after 1 hr by mobility shift electrophoresis assay
[11] = target: Phosphatidylinositol 4,5-bisphosphate 3-kinase catalytic subunit gamma isoform (Homo sapiens, UniProt P48736); assay: Inhibition of PI3Kgamma
[12] = target: T1, Serine/threonine-protein kinase mTOR; assay: Inhibition of mTOR complex 1 in human PC3MM2 cells assessed as suppression of S6K phosphorylation at T389 treated for 6 hrs by immunoblotting analysis; type: cell-based
[13] = Inhibition of PIKK assessed as blockade of VP16-induced phosphorylation of ChK1 at S345 at 3 umol/L
[14] = target: Cyclin-dependent kinase 2 (Homo sapiens, UniProt P24941); assay: Inhibition of CDK2/cyclinA after 1 hr by mobility shift electrophoresis assay
[15] = target: Inhibitor of nuclear factor kappa-B kinase subunit alpha (Homo sapiens, UniProt O15111); assay: Inhibition of IKKalpha after 1 hr by mobility shift electrophoresis assay
Sequence of Inhibitor of nuclear factor kappa-B kinase subunit alpha (O15111 whole entry): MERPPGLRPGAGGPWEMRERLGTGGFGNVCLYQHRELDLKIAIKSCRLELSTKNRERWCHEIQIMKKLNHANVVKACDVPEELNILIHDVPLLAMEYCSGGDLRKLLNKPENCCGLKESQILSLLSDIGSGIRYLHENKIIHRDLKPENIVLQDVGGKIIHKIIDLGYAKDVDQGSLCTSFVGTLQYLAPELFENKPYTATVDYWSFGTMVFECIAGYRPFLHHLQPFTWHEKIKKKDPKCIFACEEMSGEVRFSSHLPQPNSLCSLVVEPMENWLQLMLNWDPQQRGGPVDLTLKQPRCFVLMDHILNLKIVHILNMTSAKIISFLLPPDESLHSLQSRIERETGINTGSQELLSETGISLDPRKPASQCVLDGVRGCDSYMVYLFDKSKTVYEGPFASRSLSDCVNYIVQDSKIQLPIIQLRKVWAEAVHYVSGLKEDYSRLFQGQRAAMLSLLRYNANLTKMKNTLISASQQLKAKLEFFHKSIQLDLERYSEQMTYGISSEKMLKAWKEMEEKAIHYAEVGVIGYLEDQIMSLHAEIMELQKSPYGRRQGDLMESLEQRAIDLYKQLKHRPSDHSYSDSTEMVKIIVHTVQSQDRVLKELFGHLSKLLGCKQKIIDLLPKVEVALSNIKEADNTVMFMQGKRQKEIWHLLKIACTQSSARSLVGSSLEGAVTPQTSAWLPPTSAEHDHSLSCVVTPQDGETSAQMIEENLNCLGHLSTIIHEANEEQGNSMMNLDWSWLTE

[16] = target: Rho-associated protein kinase 1 (Homo sapiens, UniProt Q13464); assay: Inhibition of ROCK1 after 1 hr by mobility shift electrophoresis assay
[17] = Inhibition of PKA after 1 hr by mobility shift electrophoresis assay
[18] = target: RAC-alpha serine/threonine-protein kinase (Homo sapiens, UniProt P31749); assay: Inhibition of PKBalpha after 1 hr by mobility shift electrophoresis assay
Mus musculus [19] = assay: Inhibition of mTOR complex 2 in BALB/c nu/nu mouse bearing PTEN-null human PC3MM2 xenograft tumor assessed as suppression of P-AKT phosphorylation at S473 at 50 mg/kg, ip administered as single dose for 4 to 6 hrs; type: functional, organism-based; design: dose 50 mg/kg
[20] = target: T1, Serine/threonine-protein kinase mTOR; assay: Inhibition of mTOR complex 2 in human U87MG cells assessed as suppression of AKT phosphorylation at S473 treated for 6 hrs by immunoblotting analysis; type: cell-based; settings: U-87MG ATCC
[21] = target: Vascular endothelial growth factor receptor 2 (Homo sapiens, UniProt P35968); assay: Inhibition of VEGFR2 after 1 hr by mobility shift electrophoresis assay
[22] = target: Tyrosine-protein kinase Fyn (Homo sapiens, UniProt P06241); assay: Inhibition of FYN after 1 hr by mobility shift electrophoresis assay
[23] = Antitumor activity against human U87MG cells xenografted in BALB/c nu/nu mouse at 50 mg/kg, ip administered twice daily for 5 days measured on day 7 relative to control; type: functional, U-87MG ATCC; settings: route intraperitoneal
[24] = target: Casein kinase I isoform gamma-1 (Homo sapiens, UniProt Q9HCP0); assay: Inhibition of CK1gamma1 after 1 hr by mobility shift electrophoresis assay
[25] = target: Serine/threonine-protein kinase Chk1 (Homo sapiens, UniProt O14757); assay: Inhibition of CHK1 after 1 hr by mobility shift electrophoresis assay
Sequence of Serine/threonine-protein kinase Chk1 (O14757 whole entry): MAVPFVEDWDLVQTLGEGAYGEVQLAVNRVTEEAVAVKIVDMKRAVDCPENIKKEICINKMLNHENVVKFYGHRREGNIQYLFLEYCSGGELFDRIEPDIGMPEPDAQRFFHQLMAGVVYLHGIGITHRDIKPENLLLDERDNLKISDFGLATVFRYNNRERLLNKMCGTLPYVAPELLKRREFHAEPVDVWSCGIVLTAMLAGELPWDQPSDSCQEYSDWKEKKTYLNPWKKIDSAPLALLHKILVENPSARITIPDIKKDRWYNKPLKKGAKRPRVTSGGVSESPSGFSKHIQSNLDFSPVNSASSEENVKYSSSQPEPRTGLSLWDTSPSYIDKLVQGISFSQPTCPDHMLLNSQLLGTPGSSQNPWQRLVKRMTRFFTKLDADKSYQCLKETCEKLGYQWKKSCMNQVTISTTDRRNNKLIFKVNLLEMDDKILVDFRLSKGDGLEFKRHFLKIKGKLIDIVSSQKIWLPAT

Mus musculus [26] = assay: Inhibition of mTOR complex 1 in BALB/c nu/nu mouse bearing PTEN-null human PC3MM2 xenograft tumor assessed as suppression of S6K phosphorylation at T389 at 50 mg/kg, ip administered as single dose for 6 hrs; type: functional, organism-based; design: dose 50 mg/kg
[27] = target: Mitogen-activated protein kinase 14 (Homo sapiens, UniProt Q16539); assay: Inhibition of p38alpha after 1 hr by mobility shift electrophoresis assay
[28] = target: Tyrosine-protein kinase Lyn (Homo sapiens, UniProt P07948); assay: Inhibition of LYN after 1 hr by mobility shift electrophoresis assay
[29] = target: Protein kinase C beta type (Homo sapiens, UniProt P05771); assay: Inhibition of PKCbeta after 1 hr by mobility shift electrophoresis assay
[30] = target: Protein kinase C alpha type (Homo sapiens, UniProt P17252); assay: Inhibition of PKCalpha after 1 hr by mobility shift electrophoresis assay
[31] = target: Platelet-derived growth factor receptor alpha (Homo sapiens, UniProt P16234); assay: Inhibition of PDGFRalpha after 1 hr by mobility shift electrophoresis assay
Sequence of Platelet-derived growth factor receptor alpha (P16234 whole entry): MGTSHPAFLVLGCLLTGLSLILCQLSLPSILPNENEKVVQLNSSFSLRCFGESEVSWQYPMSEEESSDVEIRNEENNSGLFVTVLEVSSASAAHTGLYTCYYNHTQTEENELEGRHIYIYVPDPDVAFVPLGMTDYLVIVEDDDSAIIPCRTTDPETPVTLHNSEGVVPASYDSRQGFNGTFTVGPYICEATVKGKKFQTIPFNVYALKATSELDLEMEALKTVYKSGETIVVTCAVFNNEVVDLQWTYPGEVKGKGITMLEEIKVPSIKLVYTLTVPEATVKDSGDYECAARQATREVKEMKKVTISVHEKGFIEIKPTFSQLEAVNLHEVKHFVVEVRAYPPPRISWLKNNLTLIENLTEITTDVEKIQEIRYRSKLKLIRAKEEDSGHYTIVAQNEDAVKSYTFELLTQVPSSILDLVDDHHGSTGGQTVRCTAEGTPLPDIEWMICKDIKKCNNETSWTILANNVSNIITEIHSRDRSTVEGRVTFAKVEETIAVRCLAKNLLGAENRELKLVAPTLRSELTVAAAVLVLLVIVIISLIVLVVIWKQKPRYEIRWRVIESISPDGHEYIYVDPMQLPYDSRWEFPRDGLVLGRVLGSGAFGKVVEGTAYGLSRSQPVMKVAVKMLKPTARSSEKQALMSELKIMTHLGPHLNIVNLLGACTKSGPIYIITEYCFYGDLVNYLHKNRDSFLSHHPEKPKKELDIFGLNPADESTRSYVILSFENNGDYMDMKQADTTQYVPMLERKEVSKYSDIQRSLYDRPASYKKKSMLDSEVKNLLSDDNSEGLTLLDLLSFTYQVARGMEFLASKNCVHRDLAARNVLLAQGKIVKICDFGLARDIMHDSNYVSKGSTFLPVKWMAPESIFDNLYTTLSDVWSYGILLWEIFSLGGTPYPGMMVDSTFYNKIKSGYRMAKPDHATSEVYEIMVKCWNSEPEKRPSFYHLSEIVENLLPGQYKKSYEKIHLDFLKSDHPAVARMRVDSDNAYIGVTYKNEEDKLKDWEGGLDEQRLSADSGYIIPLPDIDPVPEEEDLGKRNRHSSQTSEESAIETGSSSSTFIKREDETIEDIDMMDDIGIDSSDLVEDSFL

[32] = Inhibition of PIKK assessed as blockade of VP16-induced phosphorylation of p53 at S15 at 3 umol/L
[33] = target: T1, Serine/threonine-protein kinase mTOR; assay: Inhibition of mTOR complex 1 in human U87MG cells assessed as suppression of S6K phosphorylation at T389 treated for 6 hrs by immunoblotting analysis; type: cell-based; settings: U-87MG ATCC
[34] = target: Proto-oncogene tyrosine-protein kinase Src (Homo sapiens, UniProt P12931); assay: Inhibition of SRC after 1 hr by mobility shift electrophoresis assay
Sequence of Proto-oncogene tyrosine-protein kinase Src (P12931 2-536 limits assumed): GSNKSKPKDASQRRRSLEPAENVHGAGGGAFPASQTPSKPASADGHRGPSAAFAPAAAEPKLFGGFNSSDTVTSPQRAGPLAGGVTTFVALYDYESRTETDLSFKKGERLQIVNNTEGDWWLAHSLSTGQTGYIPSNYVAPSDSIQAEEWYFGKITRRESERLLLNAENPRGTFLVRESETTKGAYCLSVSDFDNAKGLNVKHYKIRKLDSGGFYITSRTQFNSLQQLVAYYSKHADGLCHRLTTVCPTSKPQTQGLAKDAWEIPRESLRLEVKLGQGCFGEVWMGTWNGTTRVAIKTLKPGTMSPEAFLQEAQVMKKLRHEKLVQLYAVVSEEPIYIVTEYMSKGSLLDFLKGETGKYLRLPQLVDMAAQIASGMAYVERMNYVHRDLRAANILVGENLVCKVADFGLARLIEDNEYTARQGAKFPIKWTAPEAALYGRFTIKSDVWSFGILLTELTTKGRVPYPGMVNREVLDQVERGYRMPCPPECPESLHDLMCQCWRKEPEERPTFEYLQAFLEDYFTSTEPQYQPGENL

Aurora kinase B = Aurora kinase B (Homo sapiens, UniProt Q96GD4); assay: Inhibition of Aurora B after 1 hr by mobility shift electrophoresis assay
[35] = target: Mitogen-activated protein kinase 1 (Homo sapiens, UniProt P28482); assay: Inhibition of ERK2 after 1 hr by mobility shift electrophoresis assay
Sequence of Mitogen-activated protein kinase 1 (P28482 whole entry): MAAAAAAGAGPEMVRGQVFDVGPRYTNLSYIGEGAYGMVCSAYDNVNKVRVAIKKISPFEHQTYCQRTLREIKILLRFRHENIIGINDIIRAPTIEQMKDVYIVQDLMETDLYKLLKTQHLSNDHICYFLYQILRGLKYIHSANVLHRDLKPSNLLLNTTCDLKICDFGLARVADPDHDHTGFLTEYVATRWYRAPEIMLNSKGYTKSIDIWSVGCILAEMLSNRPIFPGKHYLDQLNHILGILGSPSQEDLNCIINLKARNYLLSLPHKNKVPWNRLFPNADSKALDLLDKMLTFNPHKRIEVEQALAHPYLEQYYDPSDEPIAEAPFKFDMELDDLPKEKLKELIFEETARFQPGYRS

[36] = target: Mitogen-activated protein kinase kinase kinase kinase 2 (Homo sapiens, UniProt Q12851); assay: Inhibition of GCK after 1 hr by mobility shift electrophoresis assay
[37] = target: Tyrosine-protein kinase HCK (Homo sapiens, UniProt P08631); assay: Inhibition of HCK after 1 hr by mobility shift electrophoresis assay
[38] = target: Cyclin-dependent kinase 1/cyclin B1 (Homo sapiens, UniProt P06493); assay: Inhibition of CDK1/cyclinB after 1 hr by mobility shift electrophoresis assay; type: protein-complex assay
[39] = target: Tyrosine-protein kinase ABL1 (Homo sapiens, UniProt P00519); assay: Inhibition of ABL1 after 1 hr by mobility shift electrophoresis assay
[40] = Aqueous solubility at pH 3; type: physicochemical; settings: buffer

## CNC(=O)Nc1ccc(-c2nc(N3CCOCC3)c3cnn(C4CCN(C)CC4)c3n2)cc1
LNCaP
  IC50: 733 nM
[1]
  IC50: 22 nM
[2]
  half-life at 1 µM: 2 min

## CCOC(=O)Nc1ccc(-c2nc(N3CCOCC3)c3cnn(C4CCN(Cc5ccccc5)CC4)c3n2)cc1
LNCaP
  IC50: 3400 nM
[1]
  IC50: 46 nM
[3]
  IC50: 631 nM

## CNC(=O)Nc1ccc(-c2nc(N3CCOCC3)c3cnn(C4CCN(C(C)=O)CC4)c3n2)cc1
LNCaP
  IC50: 817 nM
[1]; hek293
  IC50: 2.1 nM
[2]
  half-life at 1 µM: 27 min

## CC(=O)Nc1ccc(-c2nc(N3CCOCC3)c3cnn(C4CCN(Cc5cccnc5)CC4)c3n2)cc1
LNCaP
  IC50: 66 nM
[1]
  IC50: 7 nM
[2]
  half-life at 1 µM: 12 min

## CNC(=O)Nc1ccc(-c2nc(N3CCOCC3)c3cnn(C4CCNCC4)c3n2)cc1
LNCaP
  IC50: 1370 nM
[1]
  IC50: 1.4 nM
[2]
  half-life at 1 µM: > 30 min

## CCNC(=O)Nc1ccc(-c2nc(N3CCOCC3)c3cnn(C4CCN(C(=O)OC)CC4)c3n2)cc1
LNCaP
  IC50: 55 nM
[1]
  IC50: 0.32 nM
[2]
  half-life at 1 µM: > 30 min

## CNC(=O)Nc1ccc(-c2nc(N3CCOCC3)c3cnn(C4CCN(Cc5cccnc5)CC4)c3n2)cc1
[2]
  half-life at 1 µM: 12 min

## CNC(=O)Nc1ccc(-c2nc(N3CCOCC3)c3cnn(C4CCN(C(=O)NC)CC4)c3n2)cc1
LNCaP
  IC50: 2570 nM
[1]; hek293
  IC50: 2 nM

## CC(=O)Nc1cccc(-c2nc(N3CCOCC3)c3cnn(C4CCN(Cc5ccccc5)CC4)c3n2)c1
[1]
  IC50: 2450 nM

## CNC(=O)Nc1ccc(-c2nc(N3CCOCC3)c3cnn(C4CCN(C(=O)OC)CC4)c3n2)cc1
Mus musculus [4]
  Activity: Active
[5]
  T/C: 0.57
Mus musculus [6]
  Activity: Active
Mus musculus [7]
  Activity: inactive

## CNC(=O)Nc1ccc(-c2nc(N3CCOCC3)c3cnn(C4CCN(C(=O)N(C)C)CC4)c3n2)cc1
LNCaP
  IC50: 197 nM
[1]
  IC50: 1.1 nM
[2]
  half-life at 1 µM: > 30 min

## Oc1cccc(-c2nc(N3CCOCC3)c3cnn(C4CCN(Cc5cccnc5)CC4)c3n2)c1
LNCaP
  IC50: 53 nM
[1]
  IC50: 9.6 nM
[2]
  half-life at 1 µM: 5 min

## COC(=O)Nc1ccc(-c2nc(N3CCOCC3)c3cnn(C4CCN(C(=O)OC)CC4)c3n2)cc1
[8]
  Activity: Dose-dependent effect
[9]
  IC50: > 50000 nM
[10]
  IC50: > 50000 nM
[11]
  IC50: 6320 nM
[12]
  Activity: Dose-dependent effect
[13]
  Activity: inactive
[14]
  IC50: > 50000 nM
LNCaP
  IC50: 355 nM
[5]
  T/C: 0.62
[15]
  IC50: > 50000 nM
[16]
  IC50: > 50000 nM
[17]
  IC50: > 50000 nM
[1]
  IC50: 4.3 nM
[18]
  IC50: > 50000 nM
Mus musculus [19]
  Activity: Active
[20]
  Activity: Dose-dependent effect
[21]
  IC50: > 50000 nM
[2]
  half-life at 1 µM: > 30 min
[22]
  IC50: > 50000 nM
[23]
  T/C: 0.14
[24]
  IC50: > 50000 nM
[25]
  IC50: > 50000 nM
Mus musculus [26]
  Activity: Active
[27]
  IC50: > 50000 nM
[28]
  IC50: > 50000 nM
[29]
  IC50: > 50000 nM
[30]
  IC50: > 50000 nM
[3]
  IC50: 1030 nM
[31]
  IC50: > 50000 nM
[32]
  Activity: inactive
[33]
  Activity: Dose-dependent effect
[34]
  IC50: > 50000 nM
Aurora kinase B
  IC50: > 50000 nM
[35]
  IC50: > 50000 nM
Mus musculus [7]
  Activity: inactive
[36]
  IC50: > 50000 nM
[37]
  IC50: > 50000 nM
[38]
  IC50: > 50000 nM
[39]
  IC50: > 50000 nM

## CNC(=O)Nc1ccc(-c2nc(N3CCOCC3)c3cnn(C4CCN(Cc5ccccc5)CC4)c3n2)cc1
[2]
  half-life at 1 µM: 3 min

## O=C(Nc1ccncc1)Nc1ccc(-c2nc(N3CCOCC3)c3cnn(C4CCN(C(=O)c5cccnc5)CC4)c3n2)cc1
LNCaP
  IC50: 150 nM
[1]
  IC50: 0.83 nM
[2]
  half-life at 1 µM: 22 min
[3]
  IC50: 548 nM

## COC(=O)N1CCC(n2ncc3c(N4CCOCC4)nc(-c4ccc(NC(=O)Nc5ccncc5)cc4)nc32)CC1
LNCaP
  IC50: 60 nM
[1]; hek293
  IC50: 0.3 nM
[2]
  half-life at 1 µM: 9 min
[3]
  IC50: 18 nM

## O=C(Nc1ccc(-c2nc(N3CCOCC3)c3cnn(C4CCN(Cc5cccnc5)CC4)c3n2)cc1)OCCO
[2]
  half-life at 1 µM: 6 min

## COC(=O)N1CCC(n2ncc3c(N4CCOCC4)nc(-c4ccc(NC(=O)Nc5ccc(N6CCN(C)CC6)cc5)cc4)nc32)CC1
[40]
  solubility: > 100 µg/mL

## COC(=O)N1CCC(n2ncc3c(N4CCOCC4)nc(-c4ccc(NC(=O)OCCO)cc4)nc32)CC1
LNCaP
  IC50: 28 nM
[1]
  IC50: 1 nM
[2]
  half-life at 1 µM: > 30 min

## COC(=O)Nc1ccc(-c2nc(N3CCOCC3)c3cnn(C4CCN(Cc5cccnc5)CC4)c3n2)cc1
[2]
  half-life at 1 µM: 14 min

## COC(=O)N1CCC(n2ncc3c(N4CCOCC4)nc(-c4ccc(NC(=O)Nc5cccnc5)cc4)nc32)CC1
LNCaP
  IC50: 31 nM
[1]
  IC50: 0.2 nM
[2]
  half-life at 1 µM: 24 min
[3]
  IC50: 35 nM

## COC(=O)N1CCC(n2ncc3c(N4CCOCC4)nc(-c4ccc(NC(=O)Nc5ccc(CO)cc5)cc4)nc32)CC1
LNCaP
  IC50: < 1 nM
[1]; hek293
  IC50: 0.08 nM
[2]
  half-life at 1 µM: 13 min
[3]
  IC50: 6 nM
